# Measurements reported in patent US5385885A, “Inhibition of smooth muscle cell proliferation by antistasin and tick anticoagulant peptide” (priority 1991, dated 1995).
# “Also recorded” adds a separate entry of the source.
# How the values were obtained:
# [1] = test system: human venous endothelial cells; experiment: Release of mitogens from endothelial cells stimulated with factor Xa; conditioned media tested for mitogenic activity on 3T3 cells; assay type: cell-based; settings: 1 unit = activity induced by 2 ng/ml PDGF, FXa 1 nM, ATS 5 nM, PDGF 2 ng/ml, 16 h
# Protocol: (§1) Confluent primary cultures or subcultures (passages 1 and 2) of human venous endothelial cells (EC) were cultured in serum-free Dulbecco's Minimal Essential Medium (DMEM)+0.1% bovine serum albumin (BSA) in the presence of human or bovine factor Xa(1 nM) (Sigma Chemical Co., St. Louis, Mo.), antistasin (ATS) (0.5-5.0 nM), or both. Control cultures were untreated or received 2 ng/ml platelet-derived growth factor (PDGF) (Sigma Chemical Co., St. Louis, Mo.). After 16 hours incubation at 37° C., the conditioned media (CM) from the test and control cell cultures were collected and tested for mitogenic activity (MIT) using confluent NIH 3T3 cells (CCL 163, American Type Culture Collection, Rockville, Md.).
# (§2) Primary cultures of EC derived from umbilical cord veins were prepared and grown according to a protocol provided to by Dr. Gwendolyn Stewart (Temple University Thrombosis Center, Phila., Pa.). After washing the lumen of the vein twice with DMEM, EC were dissociated with a solution containing 0.05% trypsin and 0.1% collagenase. Thirty minutes later, the venous content and the perfused DMEM (35 ml) was collected into a fifty ml centrifuge tube containing 3.5 ml of bovine serum and the mixture spun at 900 rpm for 10 minutes. The supernate was discarded and the cell pellet resuspended in 3.0 ml DMEM containing 20% fetal bovine serum (FBS) (heat inactivated at 56° C. for 30 minutes), 90 μg heparin per ml, 5 μg fibronectin per ml, and 60 μg endothelial growth factor per ml (cDMEM), and seeded into 35 mm tissue culture dishes. After 24 hours of incubation at 37 °C, 5% CO2, the culture was washed 3-4 times with DMEM and incubated 2-4 days until the cells were confluent. The monolayers were washed with phosphate buffered saline (PBS) and cultured in DMEM with 0.1% BSA in the presence and absence of 1 nM factor Xa, 5 nM antistasin, or a mixture of both. As positive and negative controls, separated monolayers were incubated with the medium plus 2 ng/ml PDGF or with the medium alone. After 16 hours of incubation at 37° C., conditioned media (CM) were collected, centrifuged at 4000×g for 10 minutes, and the supernate was collected and stored at 4° C. until use. The mitogenic activity of the CM was tested by measuring the incorporation of [^3 H] thymidine into cultures of Balb 3T3 cells. For this purpose, wells were seeded with 2×10^4 3T3 cells suspended in 1 ml DMEM with 10% FBS. Once confluent (5-7 days of culture), CM were added and cells incubated for 18 hours at 37° C. after which cultures were washed with warm DMEM, tritiated thymidine added (1 μCi/ml) and cells incubated for 4 hours at 37° C. […] The lysate was transferred to vials with scintillation fluid and radioactivity monitored in a beta radiation counter. […]
# [2] = test system: human venous endothelial cells; experiment: Release of mitogens from endothelial cells stimulated with PDGF; conditioned media tested for mitogenic activity on 3T3 cells; assay type: cell-based; settings: PDGF 2 ng/ml, ATS 5 nM, 16 h
# Protocol: as §1, with “cells” for “cells (EC)”, “platelet-derived growth” for “human or bovine”, “(PDGF) (2 ng/ml),” for “Xa(1 nM) (Sigma Chemical Co., St. Louis, Mo.),”, “(5.0-10” for “(0.5-5.0”, “PDGF.” for “platelet-derived growth factor (PDGF) (Sigma Chemical Co., St. Louis, Mo.).”, “C.,” for “C., the”
# as §2, with “2 ng/ml PDGF,” for “1 nM factor Xa,”, “alone.” for “alone. After 16 hours of incubation at 37° C., conditioned media (CM) were collected, centrifuged at 4000×g for 10 minutes, and the supernate was collected and stored at 4° C. until use. The mitogenic activity of the CM was tested by measuring the incorporation of [^3 H] thymidine into cultures of Balb 3T3 cells. For this purpose, wells were seeded with 2×10^4 3T3 cells suspended in 1 ml DMEM with 10% FBS. Once confluent (5-7 days of culture), CM were added and cells incubated for 18 hours at 37° C. after which cultures were washed with warm DMEM, tritiated thymidine added (1 μCi/ml) and cells incubated for 4 hours at 37° C.”
# [3] = test system: smooth muscle proliferative responses; settings: doses sufficiently high to prevent platelet adherence and release; Harker et al.; cited from earlier work
# [4] = target: thrombin (Homo sapiens, UniProt P00734); settings: Waxman et al.; cited from earlier work
# [5] = target: T1, Factor VIIa (Homo sapiens, UniProt P08709); settings: Waxman et al.; cited from earlier work
# T1 sequence (P08709 213-466 limits assumed): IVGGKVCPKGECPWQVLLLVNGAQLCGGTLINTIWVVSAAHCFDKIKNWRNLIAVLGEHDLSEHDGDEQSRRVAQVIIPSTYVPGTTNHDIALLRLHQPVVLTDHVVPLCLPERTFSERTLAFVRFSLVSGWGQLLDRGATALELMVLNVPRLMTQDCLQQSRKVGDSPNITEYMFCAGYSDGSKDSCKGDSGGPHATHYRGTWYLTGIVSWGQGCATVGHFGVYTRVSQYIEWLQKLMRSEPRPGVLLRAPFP
# T1 sequence (P08709 61-212 partner limits assumed): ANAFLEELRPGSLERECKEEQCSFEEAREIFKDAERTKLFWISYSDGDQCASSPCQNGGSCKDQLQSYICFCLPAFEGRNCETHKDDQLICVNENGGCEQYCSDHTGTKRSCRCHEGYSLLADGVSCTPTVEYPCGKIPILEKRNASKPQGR
# [6] = target: blood coagulation factor Xa (Homo sapiens, UniProt P00742); settings: Waxman et al.; cited from earlier work
# [7] = test system: smooth muscle cells; experiment: Effect of antistasin and tick anticoagulant peptide on factor Xa induced mitogenesis of smooth muscle cells; assay type: cell-based, rat; settings: FIG. 2
# Protocol: Primary smooth muscle cell cultures were prepared from the thoracic and abdominal aorta of 2-3 month old Wistar rats essentially using the procedure of Reilly, C. F. (1990) J. Cell Physiol. 142,342 (1990). After removing as much fat and adherent adventitia as possible with scissors and forceps, the tissue was finely minced, enzymatically dissociated with successive 37° C. incubations in HBSS containing collagenase (Sigma, 0.5 mg/ml for 15 min.), then elastase (Sigma, 0.125 mg/ml for 30 min.) and again collagenase (60 min.). […] Cells were grown in Dulbecco's Minimal Essential Medium (DMEM) containing 10% fetal bovine serum (FBS) with antibiotics. […] Using a monoclonal antibody to alpha actin (Sigma Chemical Company, St. Louis, Mo.), about 60-80% (preparation dependent) of these confluent cells stained positive for this smooth muscle cell marker. After 10 days in culture, the cells were dissociated with trypsinethylene diamine tetraacetate (EDTA), split 1:10 and subcultured in the above medium. At confluence the cells were transferred to DMEM containing 0.1 % FBS for a 24 hour period before using them for assay. […]
# (§3) The prepared rat smooth muscle cells were seeded in Falcon 24 multiwell plates (10^5 cells/well) and cultured at 37° C., in a 5% CO2 atmosphere in 1 ml DMEM containing 10% FBS. […] The cells were washed twice with cold phosphate buffered saline (PBS), treated twice with 5% trichloroacetic acid (TCA) for 5 min., dissolved with 0.25N NaOH (0.4 ml) incubated at 37° C. for 60 min., mixed with 5 ml Ecolume (ICN Biomedicals, Costa Mesa, Calif.), and their radioactivity determined in a scintillation counter. […] Smooth muscle cell mitogenic activity produced by exogenous agents is expressed as % relative mitogenic activity which is defined as: [formula] […]
# The effects of antistasin and tick anticoagulant peptide on factor Xa induced mitogenesis of smooth muscle cells were tested using the method shown in Example 4. […] At the end of the 24 hour incubation, ^3 H-thymidine incorporation into DNA was monitored and smooth muscle cell mitogenic activity was assessed as described in Example 4.
# [8] = test system: smooth muscle cells; experiment: Effect of factor Xa inhibitors on human protein S and bovine factor X induced smooth muscle cell mitogenesis; assay type: cell-based, rat; settings: FIG. 3
# Protocol: Primary smooth muscle cell cultures were prepared from the thoracic and abdominal aorta of 2-3 month old Wistar rats essentially using the procedure of Reilly, C. F. (1990) J. Cell Physiol. 142,342 (1990). After removing as much fat and adherent adventitia as possible with scissors and forceps, the tissue was finely minced, enzymatically dissociated with successive 37° C. incubations in HBSS containing collagenase (Sigma, 0.5 mg/ml for 15 min.), then elastase (Sigma, 0.125 mg/ml for 30 min.) and again collagenase (60 min.). […] Cells were grown in Dulbecco's Minimal Essential Medium (DMEM) containing 10% fetal bovine serum (FBS) with antibiotics. […]
# as §3
# [9] = test system: kallikrein; settings: Waxman et al.; cited from earlier work
# [10] = target: T2, trypsin (Bos taurus, UniProt P00760); settings: Waxman et al.; cited from earlier work
# T2 construct: gene PRSS1
# T2 sequence (P00760 24-246): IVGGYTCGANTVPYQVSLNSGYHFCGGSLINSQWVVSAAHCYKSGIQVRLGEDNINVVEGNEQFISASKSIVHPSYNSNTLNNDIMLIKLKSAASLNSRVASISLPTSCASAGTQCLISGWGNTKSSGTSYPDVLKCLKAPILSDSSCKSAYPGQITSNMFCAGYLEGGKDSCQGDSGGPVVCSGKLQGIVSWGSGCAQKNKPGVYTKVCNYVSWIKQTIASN
# [11] = target: chymotrypsin (Bos taurus, UniProt P00766); settings: Waxman et al.; cited from earlier work
# Sequence of blood coagulation factor Xa (P00742 235-488 limits assumed): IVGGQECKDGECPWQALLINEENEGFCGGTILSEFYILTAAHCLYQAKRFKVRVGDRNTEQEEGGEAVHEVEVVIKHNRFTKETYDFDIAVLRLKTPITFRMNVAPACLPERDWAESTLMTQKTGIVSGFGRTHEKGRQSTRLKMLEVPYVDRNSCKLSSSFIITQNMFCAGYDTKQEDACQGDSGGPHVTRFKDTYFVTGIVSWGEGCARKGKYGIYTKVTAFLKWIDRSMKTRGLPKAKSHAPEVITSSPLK
# Sequence of blood coagulation factor Xa (P00742 41-179 partner limits assumed): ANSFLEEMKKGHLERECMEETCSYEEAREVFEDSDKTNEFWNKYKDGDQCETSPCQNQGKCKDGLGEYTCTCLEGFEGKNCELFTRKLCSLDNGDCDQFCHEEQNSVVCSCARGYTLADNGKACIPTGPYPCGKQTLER
compound,measurement,setting,value
PDGF [reference compound],Mitogenic units of EC conditioned media,[1]; EXP 1,1.00 mitogenic units
same,Mitogenic units of EC conditioned media,[1]; EXP 2,1.00 mitogenic units
same,Mitogenic units of EC conditioned media,[1]; EXP 3,1.00 mitogenic units
same,Mitogenic units of EC conditioned media,[1]; EXP 4,1.00 mitogenic units
same,Mitogenic units of EC conditioned media,[2]; EXP 1,1.00 mitogenic units
same,Mitogenic units of EC conditioned media,[2]; EXP 2,1.00 mitogenic units
same,Mitogenic units of EC conditioned media,[2]; EXP 3,1.00 mitogenic units
OCCN(CCO)c1nc(N2CCCCC2)c2nc(N(CCO)CCO)nc(N3CCCCC3)c2n1 [dipyridamole],Smooth muscle proliferative responses,[3],prevented
"tick anticoagulant peptide (YNRLCIKPRDWIDECDSNEGGERAYFRNGKGGCDSFWICPEDHTGADYYSSYRDCFNACI; UniProt P17726 1-60, looked up) [TAP, 60-amino acid peptide isolated from extracts of the soft tick Ornithodoros moubata]",Effect on thrombin,[4],no effect
same,Effect on Factor VIIa,[5],no effect
same,Inhibition of blood factor Xa,[6],highly specific inhibitor; also recorded: potent inhibitor
same,Relative mitogenic activity above control,[7]; 10 nM fXa and 3-25 nM TAP,about 25%
same,Relative mitogenic activity above control,[7]; 10 nM fXa and 50-62 nM TAP,about 9%
same,Relative mitogenic activity above control,[7]; 10 nM fXa with 100-250 nM TAP,near zero
same,Inhibition of relative mitogenic activity of bovine factor X,[8]; 10 nM bovine factor X with 100 nM TAP,not significantly inhibited
same,Inhibition of relative mitogenic activity of protein S,[8]; protein S with 250 nM TAP,abolished
same,Effect on kallikrein,[9],no effect
same,Effect on trypsin,[10],no effect
same,Effect on chymotrypsin,[11],no effect
